{"source": "ChEMBL document CHEMBL4028808", "about": "“Design and synthesis of selective CDK8/19 dual inhibitors: Discovery of 4,5-dihydrothieno[3',4':3,4]benzo[1,2-d]isothiazole derivatives” (Bioorg Med Chem, 2017)", "key": {"[1]": {"molecular_target": "Cyclin-dependent kinase 8 (Homo sapiens, UniProt P49336)", "sequence (P49336 whole entry)": "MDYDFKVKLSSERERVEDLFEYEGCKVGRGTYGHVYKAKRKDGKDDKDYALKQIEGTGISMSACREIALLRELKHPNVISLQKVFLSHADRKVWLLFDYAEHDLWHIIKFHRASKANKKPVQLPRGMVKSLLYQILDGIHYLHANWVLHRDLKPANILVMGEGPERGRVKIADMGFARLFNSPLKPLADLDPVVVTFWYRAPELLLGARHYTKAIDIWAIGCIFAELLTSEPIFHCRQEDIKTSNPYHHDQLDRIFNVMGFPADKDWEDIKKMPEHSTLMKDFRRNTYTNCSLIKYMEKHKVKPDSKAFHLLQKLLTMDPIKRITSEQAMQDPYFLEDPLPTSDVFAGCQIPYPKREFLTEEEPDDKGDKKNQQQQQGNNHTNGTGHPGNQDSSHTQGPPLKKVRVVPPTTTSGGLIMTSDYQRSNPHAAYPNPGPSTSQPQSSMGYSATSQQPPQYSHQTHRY", "experiment": "Inhibition of CDK8 in human SW480 cells assessed as decrease in STAT1 phosphorylation at Ser727 after 2 hrs by Western blot method"}, "CDK8/Cyclin C": {"molecular_target": "CDK8/Cyclin C (Homo sapiens, UniProt P49336)", "sequence (P49336 whole entry)": "as above", "sequence (P24863 whole entry, further chain)": "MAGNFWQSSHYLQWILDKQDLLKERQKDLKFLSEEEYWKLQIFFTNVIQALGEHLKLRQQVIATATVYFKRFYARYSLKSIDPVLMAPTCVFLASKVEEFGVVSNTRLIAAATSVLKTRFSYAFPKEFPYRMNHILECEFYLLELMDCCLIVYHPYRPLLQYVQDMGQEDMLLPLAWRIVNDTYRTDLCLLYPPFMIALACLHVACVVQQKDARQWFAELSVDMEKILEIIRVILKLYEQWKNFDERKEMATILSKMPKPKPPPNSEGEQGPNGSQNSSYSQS", "experiment": "Inhibition of kinase tracer-236 binding to GST-tagged CDK8/CyclinC (unknown origin) after 60 mins by TR-FRET assay", "type": "protein-complex assay"}, "[2]": {"molecular_target": "Cyclin-C/Cyclin-dependent kinase 19 (Homo sapiens, UniProt Q9BWU1)", "sequence (Q9BWU1 whole entry)": "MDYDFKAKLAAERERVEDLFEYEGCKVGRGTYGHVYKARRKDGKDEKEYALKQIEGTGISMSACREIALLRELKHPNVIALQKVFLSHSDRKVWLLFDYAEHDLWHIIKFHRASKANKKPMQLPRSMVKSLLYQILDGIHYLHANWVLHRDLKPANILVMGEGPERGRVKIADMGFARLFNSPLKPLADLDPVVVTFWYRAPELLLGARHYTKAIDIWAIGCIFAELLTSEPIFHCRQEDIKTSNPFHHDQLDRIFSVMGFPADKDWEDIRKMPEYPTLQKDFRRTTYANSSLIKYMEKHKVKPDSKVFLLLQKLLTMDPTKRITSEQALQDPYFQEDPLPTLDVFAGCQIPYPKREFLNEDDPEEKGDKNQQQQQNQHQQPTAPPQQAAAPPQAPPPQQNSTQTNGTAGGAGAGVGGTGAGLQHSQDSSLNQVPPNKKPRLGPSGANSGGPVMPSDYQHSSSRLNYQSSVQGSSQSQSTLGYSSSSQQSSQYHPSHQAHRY", "sequence (P24863 whole entry, further chain)": "as the sequence (P24863 whole entry, further chain) above", "experiment": "Inhibition of kinase tracer-236 binding to GST-tagged CDK19/CyclinC (unknown origin) after 60 mins by TR-FRET assay", "type": "protein-complex assay"}, "[3]": {"experiment": "Intrinsic clearance in human liver microsomes at 1 umol/l after 15 to 30 mins in presence of NADPH by LC-MS/MS analysis", "type": "ADME, microsome", "conditions": "read-out: CLH"}, "[4]": {"experiment": "Aqueous solubility of the compound in DMSO at pH 6.8 by HPLC method", "type": "physicochemical"}}, "data": [{"smiles": "C[S+]([O-])c1sc(C(N)=O)c2c1-c1sncc1CC2", "note": "(configuration not stated)", "values": [{"measurement": "EC50", "setting": "[1]", "value": 70, "unit": "nM"}, {"measurement": "IC50", "setting": "CDK8/Cyclin C", "value": 88, "unit": "nM"}, {"measurement": "IC50", "setting": "[2]", "value": 150, "unit": "nM"}]}, {"smiles": "COCCNC(=O)c1ccc(Oc2sc(C(N)=O)c3c2-c2sncc2CC3)c(C)n1", "values": [{"measurement": "EC50", "setting": "[1]", "value": 0.35, "unit": "nM"}, {"measurement": "IC50", "setting": "CDK8/Cyclin C", "value": 1.4, "unit": "nM"}, {"measurement": "microsomal CLint at 1 µM", "setting": "[3]", "value": 71, "unit": "µL/min/mg"}, {"measurement": "IC50", "setting": "[2]", "value": 1.3, "unit": "nM"}, {"measurement": "solubility", "setting": "[4]", "value": 6.7, "unit": "µg/mL"}]}, {"smiles": "CSc1sc(C(N)=O)c2c1-c1c(cnn1C)CC2", "values": [{"measurement": "EC50", "setting": "[1]", "value": 25, "unit": "nM"}, {"measurement": "IC50", "setting": "CDK8/Cyclin C", "value": 18, "unit": "nM"}, {"measurement": "IC50", "setting": "[2]", "value": 19, "unit": "nM"}]}, {"smiles": "Cc1c(Oc2sc(C(N)=O)c3c2-c2sncc2CC3)ccc[n+]1[O-]", "values": [{"measurement": "EC50", "setting": "[1]", "value": 8.3, "unit": "nM"}, {"measurement": "IC50", "setting": "CDK8/Cyclin C", "value": 4.4, "unit": "nM"}, {"measurement": "IC50", "setting": "[2]", "value": 9.3, "unit": "nM"}]}, {"smiles": "CSc1sc(C(=O)Nc2ccccc2)c2c1-c1sncc1CC2", "values": [{"measurement": "EC50", "setting": "[1]", "value": "> 10000", "unit": "nM"}, {"measurement": "IC50", "setting": "CDK8/Cyclin C", "value": 540, "unit": "nM"}, {"measurement": "IC50", "setting": "[2]", "value": 700, "unit": "nM"}]}, {"smiles": "CNc1ccc(Oc2sc(C(N)=O)c3c2-c2sncc2CC3)cn1", "values": [{"measurement": "EC50", "setting": "[1]", "value": 0.58, "unit": "nM"}, {"measurement": "IC50", "setting": "CDK8/Cyclin C", "value": 0.59, "unit": "nM"}, {"measurement": "microsomal CLint at 1 µM", "setting": "[3]", "value": 127, "unit": "µL/min/mg"}, {"measurement": "IC50", "setting": "[2]", "value": 0.36, "unit": "nM"}, {"measurement": "solubility", "setting": "[4]", "value": 4, "unit": "µg/mL"}]}, {"smiles": "CN(C)C(=O)c1ccc(Oc2sc(C(N)=O)c3c2-c2sncc2CC3)cn1", "values": [{"measurement": "EC50", "setting": "[1]", "value": 21, "unit": "nM"}, {"measurement": "IC50", "setting": "CDK8/Cyclin C", "value": 23, "unit": "nM"}, {"measurement": "microsomal CLint at 1 µM", "setting": "[3]", "value": 36, "unit": "µL/min/mg"}, {"measurement": "IC50", "setting": "[2]", "value": 21, "unit": "nM"}, {"measurement": "solubility", "setting": "[4]", "value": 65, "unit": "µg/mL"}]}, {"smiles": "Cc1cncc(Oc2sc(C(N)=O)c3c2-c2sncc2CC3)c1", "values": [{"measurement": "EC50", "setting": "[1]", "value": 28, "unit": "nM"}, {"measurement": "IC50", "setting": "CDK8/Cyclin C", "value": 5.1, "unit": "nM"}, {"measurement": "microsomal CLint at 1 µM", "setting": "[3]", "value": 188, "unit": "µL/min/mg"}, {"measurement": "IC50", "setting": "[2]", "value": 9.2, "unit": "nM"}]}, {"smiles": "CSc1sc(C(N)=O)c2c1-c1oncc1CC2", "values": [{"measurement": "EC50", "setting": "[1]", "value": 200, "unit": "nM"}, {"measurement": "IC50", "setting": "CDK8/Cyclin C", "value": 45, "unit": "nM"}, {"measurement": "IC50", "setting": "[2]", "value": 71, "unit": "nM"}]}, {"smiles": "NC(=O)c1sc(Oc2cccnc2)c2c1CCc1cnsc1-2", "values": [{"measurement": "EC50", "setting": "[1]", "value": 3, "unit": "nM"}, {"measurement": "IC50", "setting": "CDK8/Cyclin C", "value": 1.5, "unit": "nM"}, {"measurement": "microsomal CLint at 1 µM", "setting": "[3]", "value": 55, "unit": "µL/min/mg"}, {"measurement": "IC50", "setting": "[2]", "value": 2.7, "unit": "nM"}]}, {"smiles": "CNC(=O)c1ccc(Oc2sc(C(N)=O)c3c2-c2sncc2CC3)cn1", "values": [{"measurement": "EC50", "setting": "[1]", "value": 2.6, "unit": "nM"}, {"measurement": "IC50", "setting": "CDK8/Cyclin C", "value": 1.9, "unit": "nM"}, {"measurement": "microsomal CLint at 1 µM", "setting": "[3]", "value": 23, "unit": "µL/min/mg"}, {"measurement": "IC50", "setting": "[2]", "value": 1, "unit": "nM"}, {"measurement": "solubility", "setting": "[4]", "value": 11, "unit": "µg/mL"}]}, {"smiles": "COc1sc(C(N)=O)c2c1-c1sncc1CC2", "values": [{"measurement": "EC50", "setting": "[1]", "value": 9.1, "unit": "nM"}, {"measurement": "IC50", "setting": "CDK8/Cyclin C", "value": 2.3, "unit": "nM"}, {"measurement": "IC50", "setting": "[2]", "value": 2.8, "unit": "nM"}]}, {"smiles": "CSc1sc(C(=O)Nc2ccon2)c2c1-c1sncc1CC2", "values": [{"measurement": "EC50", "setting": "[1]", "value": 890, "unit": "nM"}, {"measurement": "IC50", "setting": "CDK8/Cyclin C", "value": 12, "unit": "nM"}, {"measurement": "IC50", "setting": "[2]", "value": 15, "unit": "nM"}]}, {"smiles": "Cc1ncccc1Oc1sc(C(N)=O)c2c1-c1sncc1CC2", "values": [{"measurement": "EC50", "setting": "[1]", "value": 2, "unit": "nM"}, {"measurement": "IC50", "setting": "CDK8/Cyclin C", "value": 0.47, "unit": "nM"}, {"measurement": "microsomal CLint at 1 µM", "setting": "[3]", "value": 86, "unit": "µL/min/mg"}, {"measurement": "IC50", "setting": "[2]", "value": 0.77, "unit": "nM"}]}, {"smiles": "CSc1sc(C(N)=O)c2c1-c1[nH]ncc1CC2", "values": [{"measurement": "EC50", "setting": "[1]", "value": 1300, "unit": "nM"}, {"measurement": "IC50", "setting": "CDK8/Cyclin C", "value": 1700, "unit": "nM"}, {"measurement": "IC50", "setting": "[2]", "value": 3100, "unit": "nM"}]}, {"smiles": "NC(=O)c1sc(Oc2ccccn2)c2c1CCc1cnsc1-2", "values": [{"measurement": "EC50", "setting": "[1]", "value": 66, "unit": "nM"}, {"measurement": "IC50", "setting": "CDK8/Cyclin C", "value": 11, "unit": "nM"}, {"measurement": "microsomal CLint at 1 µM", "setting": "[3]", "value": 101, "unit": "µL/min/mg"}, {"measurement": "IC50", "setting": "[2]", "value": 25, "unit": "nM"}]}, {"smiles": "CSc1sc(C(=O)N(C)C)c2c1-c1sncc1CC2", "values": [{"measurement": "EC50", "setting": "[1]", "value": 1700, "unit": "nM"}, {"measurement": "IC50", "setting": "CDK8/Cyclin C", "value": 68, "unit": "nM"}, {"measurement": "IC50", "setting": "[2]", "value": 120, "unit": "nM"}]}, {"smiles": "CSc1sc(C(N)=O)c2c1-c1nn(C)cc1CC2", "values": [{"measurement": "EC50", "setting": "[1]", "value": "> 10000", "unit": "nM"}, {"measurement": "IC50", "setting": "CDK8/Cyclin C", "value": "> 10000", "unit": "nM"}]}, {"smiles": "CSc1sc(C(=O)Nc2ccn(C)n2)c2c1-c1sncc1CC2", "values": [{"measurement": "EC50", "setting": "[1]", "value": 1400, "unit": "nM"}, {"measurement": "IC50", "setting": "CDK8/Cyclin C", "value": 22, "unit": "nM"}, {"measurement": "IC50", "setting": "[2]", "value": 65, "unit": "nM"}]}, {"smiles": "Cc1ccncc1Oc1sc(C(N)=O)c2c1-c1sncc1CC2", "values": [{"measurement": "EC50", "setting": "[1]", "value": 16, "unit": "nM"}, {"measurement": "IC50", "setting": "CDK8/Cyclin C", "value": 4.7, "unit": "nM"}, {"measurement": "microsomal CLint at 1 µM", "setting": "[3]", "value": 65, "unit": "µL/min/mg"}, {"measurement": "IC50", "setting": "[2]", "value": 6.6, "unit": "nM"}]}, {"smiles": "CSc1sc(C(=O)Nc2ccsn2)c2c1-c1sncc1CC2", "values": [{"measurement": "EC50", "setting": "[1]", "value": 620, "unit": "nM"}, {"measurement": "IC50", "setting": "CDK8/Cyclin C", "value": 66, "unit": "nM"}, {"measurement": "IC50", "setting": "[2]", "value": 93, "unit": "nM"}]}, {"smiles": "CSc1sc(C#N)c2c1-c1sncc1CC2", "values": [{"measurement": "EC50", "setting": "[1]", "value": 490, "unit": "nM"}, {"measurement": "IC50", "setting": "CDK8/Cyclin C", "value": 23, "unit": "nM"}, {"measurement": "IC50", "setting": "[2]", "value": 46, "unit": "nM"}]}, {"smiles": "CSc1sc(C(N)=O)c2c1-c1snnc1CC2", "values": [{"measurement": "EC50", "setting": "[1]", "value": 550, "unit": "nM"}, {"measurement": "IC50", "setting": "CDK8/Cyclin C", "value": 60, "unit": "nM"}, {"measurement": "IC50", "setting": "[2]", "value": 130, "unit": "nM"}]}, {"smiles": "CS(=O)(=O)c1sc(C(N)=O)c2c1-c1sncc1CC2", "values": [{"measurement": "EC50", "setting": "[1]", "value": 220, "unit": "nM"}, {"measurement": "IC50", "setting": "CDK8/Cyclin C", "value": 63, "unit": "nM"}, {"measurement": "IC50", "setting": "[2]", "value": 110, "unit": "nM"}]}, {"smiles": "CSc1sc(C(=O)Nc2ccccn2)c2c1-c1sncc1CC2", "values": [{"measurement": "EC50", "setting": "[1]", "value": 2800, "unit": "nM"}, {"measurement": "IC50", "setting": "CDK8/Cyclin C", "value": 180, "unit": "nM"}, {"measurement": "IC50", "setting": "[2]", "value": 400, "unit": "nM"}]}, {"smiles": "CSc1sc(C(=O)O)c2c1-c1sncc1CC2", "values": [{"measurement": "EC50", "setting": "[1]", "value": "> 10000", "unit": "nM"}, {"measurement": "IC50", "setting": "CDK8/Cyclin C", "value": 9.5, "unit": "nM"}, {"measurement": "IC50", "setting": "[2]", "value": 12, "unit": "nM"}]}, {"smiles": "CNC(=O)c1sc(SC)c2c1CCc1cnsc1-2", "values": [{"measurement": "EC50", "setting": "[1]", "value": 140, "unit": "nM"}, {"measurement": "IC50", "setting": "CDK8/Cyclin C", "value": 9.3, "unit": "nM"}, {"measurement": "IC50", "setting": "[2]", "value": 22, "unit": "nM"}]}, {"smiles": "NC(=O)c1sc(Oc2ccccc2)c2c1CCc1cnsc1-2", "values": [{"measurement": "EC50", "setting": "[1]", "value": 0.77, "unit": "nM"}, {"measurement": "IC50", "setting": "CDK8/Cyclin C", "value": 0.34, "unit": "nM"}, {"measurement": "microsomal CLint at 1 µM", "setting": "[3]", "value": 193, "unit": "µL/min/mg"}, {"measurement": "IC50", "setting": "[2]", "value": 0.55, "unit": "nM"}]}]}
